Reference: patent publication US9415070B2, “Methods and compositions for localized delivery of agents to virally infected cells and tissues” (Massachusetts Institute of Technology, priority 2012, dated 2016)

Columns and labels:
infected target cells = assay: in vitro eradication assay, HIV-specific T cells co-cultured with infected target cells; type: cell-based; details: in the presence of the latency reversing drug; FIG. 4
Source text: The in vitro cell eradication assay presented in this Example was directed to determining if T pharmacytes can induce expression of HIV expression in latently infected cells and kill those cells. HIV-specific T cells and Cytomegalovirus (CMV)-specific T cells were co-cultured with infected target cells (and mock-infected target cells) without the addition of any exogenous cytokines.

[1] = system: B lymphoblastoid cell line (BLCL); assay: lysis of BLCL by recombinant perforin (FSC/SSC flow cytometry); type: cell-based; details: FIG. 12A
Method: The next series of experiments were designed to test the effects of different concentrations of recombinant perforin on lysis of a B lymphoblastoid cell line (BLCL). […] The cell populations with FSC/SSC characteristics of viable BLCL have been gated. 1 nM perforin appeared to be sufficient for clear cell lysis. To investigate whether perforin release from T cells is sufficient to trigger release of payload from nanoparticles conjugated to T cells, ICMV nanoparticles encapsulating Alexa-647-labeled OVA were treated with 1 nM perforin for 16 hours, or maintained as a no-treatment control. As a positive control for complete lysis, NPs were treated with 2% Triton X-100. Fluorescence was quantified at 647 nm absorbance and 695 nm emission.

Row | Molecule | response of HIV-specific T cells to infected target cells (infected target cells) | perforin concentration sufficient for clear cell lysis [1]
1 | IL-15: cytokine used as latency reversing drug | specifically respond to these infected target cells only in the presence of latency reversing drugs | 
2 | perforin: pore-forming protein, 67-kilodalton multidomain protein (protein, UniProt P14222 22-555, looked up) Perforin-1: PCHTAARSECKRSHKFVPGAWLAGEGVDVTSLRRSGSFPVDTQRFLRPDGTCTLCENALQEGTLQRLPLALTNWRAQGSGCQRHVTRAKVSSTEAVARDAARSIRNDWKVGLDVTPKPTSNVHVSVAGSHSQAANFAAQKTHQDQYSFSTDTVECRFYSFHVVHTPPLHPDFKRALGDLPHHFNASTQPAYLRLISNYGTHFIRAVELGGRISALTALRTCELALEGLTDNEVEDCLTVEAQVNIGIHGSISAEAKACEEKKKKHKMTASFHQTYRERHSEVVGGHHTSINDLLFGIQAGPEQYSAWVNSLPGSPGLVDYTLEPLHVLLDSQDPRREALRRALSQYLTDRARWRDCSRPCPPGRQKSPRDPCQCVCHGSAVTTQDCCPRQRGLAQLEVTFIQAWGLWGDWFTATDAYVKLFFGGQELRTSTVWDNNNPIWSVRLDFGDVLLATGGPLRLQVWDQDSGRDDDLLGTCDQAPKSGSHEVRCNLNHGHLKFRYHARCLPHLGGGTCLDYVPQMLLGEPPGNRSGAVW |  | 1 nM
